PubChem BioAssay AID248 (DTP/NCI, 2004)
Where “and” joins values, the source holds several entries; their conditions need not be identical. Equal entries are not always repeated. Toxic doses and inconclusive results are not listed. Rule as the data show it: active = T/C of 150% or more; inactive = T/C below 125%.

Tested on: L1210 leukemia ip in BDF1 mice, survival T/C
Experiment: NCI In Vivo Anticancer Drug Screen. Data for tumor model L1210 Leukemia (intraperitoneal) in B6D2F1 (BDF1) mice
Settings: endpoint: mean survival time, higher = longer survival
Summary of the method: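 Tumor cells were implanted, animals were treated, and survival was followed. The result divides the treated measurement by the vehicle-control measurement.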

[1] = dose: 100.0 mg/kg/injection, schedule: Q01DX009 (ip), vehicle: saline with Tween-80
[2] = dose: 100.0 mg/kg/injection, schedule: Q04DX002 (ip), vehicle: saline with Tween-80
[3] = dose: 200.0 mg/kg/injection, schedule: Q01DX009 (ip), vehicle: saline with Tween-80
[4] = dose: 200.0 mg/kg/injection, schedule: Q04DX002 (ip), vehicle: saline with Tween-80
[5] = dose: 400.0 mg/kg/injection, schedule: Q01DX009 (ip), vehicle: saline with Tween-80
[6] = dose: 400.0 mg/kg/injection, schedule: Q04DX002 (ip), vehicle: saline with Tween-80
[7] = dose: 50.0 mg/kg/injection, schedule: Q01DX001 (ip), vehicle: carboxymethylcellulose (CMC)
[8] = dose: 100.0 mg/kg/injection, schedule: Q01DX001 (ip), vehicle: carboxymethylcellulose (CMC)
[9] = dose: 200.0 mg/kg/injection, schedule: Q01DX001 (ip), vehicle: carboxymethylcellulose (CMC)

Measured: T/C

COc1ccc(Cl)cc1NC(=O)Oc1c(C)cccc1C
inactive: dose: 100.0 mg/kg/injection, schedule: Q01DX001 (ip), vehicle: saline with Tween-80 106 % of control | [1] 96 % of control | [2] 95 % of control and 89 % of control | dose: 200.0 mg/kg/injection, schedule: Q01DX001 (ip), vehicle: saline with Tween-80 90 % of control | [3] 98 % of control | [4] 95 % of control and 97 % of control | dose: 400.0 mg/kg/injection, schedule: Q01DX001 (ip), vehicle: saline with Tween-80 96 % of control | [5] 102 % of control | [6] 95 % of control and 98 % of control

CC(=O)OC(c1ccnc2ccccc12)C1CC2CCN1CC2 (configuration not stated)
inactive: [7] 97 % of control | [8] 97 % of control | [9] 95 % of control

CC(=O)OCCC/C(=C/c1ccc2c(c1)OCO2)[N+](=O)[O-]
inactive: dose: 100.0 mg/kg/injection, schedule: Q01DX001 (ip), vehicle: saline 104 % of control | dose: 200.0 mg/kg/injection, schedule: Q01DX001 (ip), vehicle: saline 101 % of control | dose: 400.0 mg/kg/injection, schedule: Q01DX001 (ip), vehicle: saline 98 % of control

COc1cccc(N2C(=O)CC(=P(c3ccccc3)(c3ccccc3)c3ccccc3)C2=O)c1
inactive: dose: 75.0 mg/kg/injection, schedule: Q01DX001 (ip), vehicle: saline 96 % of control | dose: 150.0 mg/kg/injection, schedule: Q01DX001 (ip), vehicle: saline 95 % of control

CCCCN(C(=O)C(F)(F)F)C(C)(C)C(SSSC(c1ccc(Cl)cc1)C(C)(C)N(CCCC)C(=O)C(F)(F)F)c1ccc(Cl)cc1 (configuration not stated)
inactive: dose: 100.0 mg/kg/injection, schedule: Q01DX009 (ip), vehicle: saline sonified 103 % of control | dose: 100.0 mg/kg/injection, schedule: Q04DX003 (ip), vehicle: saline sonified 96 % of control | dose: 200.0 mg/kg/injection, schedule: Q01DX009 (ip), vehicle: saline sonified 100 % of control | dose: 200.0 mg/kg/injection, schedule: Q04DX003 (ip), vehicle: saline sonified 94 % of control | dose: 400.0 mg/kg/injection, schedule: Q01DX009 (ip), vehicle: saline sonified 96 % of control | dose: 400.0 mg/kg/injection, schedule: Q04DX003 (ip), vehicle: saline sonified 97 % of control

S=C(c1ccccc1)N(c1ccccc1)C1CCCCC1
inactive: dose: 100.0 mg/kg/injection, schedule: Q04DX003 (ip), vehicle: gum acacia 91 % of control | dose: 200.0 mg/kg/injection, schedule: Q04DX003 (ip), vehicle: gum acacia 88 % of control | dose: 400.0 mg/kg/injection, schedule: Q04DX003 (ip), vehicle: gum acacia 88 % of control

C=C(C(=O)OC)C(C(=O)OC)=C(N1CCCCC1)N1CCCCC1
inactive: [2] 95 % of control | [4] 95 % of control

CCCCCCCCCCCCCCCCCC(=O)N/N=C/c1ccccc1
inactive: dose: 100.0 mg/kg/injection, schedule: Q01DX009 (ip), vehicle: other 91 % of control | dose: 200.0 mg/kg/injection, schedule: Q01DX009 (ip), vehicle: other 89 % of control | dose: 400.0 mg/kg/injection, schedule: Q01DX009 (ip), vehicle: other 105 % of control

OC1C2CC3C1C3C2O (configuration not stated)
inactive: [1] 94 % of control | [3] 94 % of control | [5] 97 % of control

Cc1cccc(-c2nnc(-c3cccc(C)n3)o2)n1
inactive: dose: 50.0 mg/kg/injection, schedule: Q04DX002 (ip), vehicle: saline with Tween-80 92 % of control | [2] 95 % of control | [4] 92 % of control | [6] 87 % of control

O=C1c2ccccc2C(=O)N1OC1CCCCO1 (configuration not stated)
inactive: dose: 100.0 mg/kg/injection, schedule: Q01DX009 (ip), vehicle: Klucel (hydroxypropylcellulose) (HPC) 104 % of control | dose: 200.0 mg/kg/injection, schedule: Q01DX009 (ip), vehicle: Klucel (hydroxypropylcellulose) (HPC) 110 % of control | dose: 400.0 mg/kg/injection, schedule: Q01DX009 (ip), vehicle: Klucel (hydroxypropylcellulose) (HPC) 97 % of control

Brc1cccc[n+]1CCC[n+]1ccccc1Br
inactive: dose: 2.2 mg/kg/injection, schedule: Q01DX Z (ip), vehicle: saline 93 % of control | dose: 3.3 mg/kg/injection, schedule: Q01DX Z (ip), vehicle: saline 87 % of control | dose: 5.0 mg/kg/injection, schedule: Q01DX Z (ip), vehicle: saline 98 % of control

O=C1CCCCCCNCCCCCC1
inactive: dose: 100.0 mg/kg/injection, schedule: Q01DX001 (ip), vehicle: acetone 97 % of control | dose: 200.0 mg/kg/injection, schedule: Q01DX001 (ip), vehicle: acetone 108 % of control | dose: 400.0 mg/kg/injection, schedule: Q01DX001 (ip), vehicle: acetone 103 % of control

Cc1cccc(SC(=O)Nc2cc([N+](=O)[O-])ccc2C)c1
inactive: dose: 100.0 mg/kg/injection, schedule: Q04DX003 (ip), vehicle: Klucel (hydroxypropylcellulose) (HPC) 92 % of control | dose: 200.0 mg/kg/injection, schedule: Q04DX003 (ip), vehicle: Klucel (hydroxypropylcellulose) (HPC) 98 % of control | dose: 400.0 mg/kg/injection, schedule: Q04DX003 (ip), vehicle: Klucel (hydroxypropylcellulose) (HPC) 97 % of control

Oc1ccccc1-c1nnco1
inactive: [7] 94 % of control | [8] 92 % of control | [9] 94 % of control | dose: 400.0 mg/kg/injection, schedule: Q01DX001 (ip), vehicle: carboxymethylcellulose (CMC) 94 % of control

CCOC(=O)CNc1ccc(F)c(C(F)(F)F)c1
inactive: dose: 100.0 mg/kg/injection, schedule: Q04DX002 (ip), vehicle: saline 95 % of control and 107 % of control | dose: 200.0 mg/kg/injection, schedule: Q04DX002 (ip), vehicle: saline 103 % of control and 92 % of control | dose: 400.0 mg/kg/injection, schedule: Q04DX002 (ip), vehicle: saline 110 % of control | dose: 600.0 mg/kg/injection, schedule: Q04DX002 (ip), vehicle: saline 95 % of control

NC(N)=N/N=C(/c1ccccc1)c1ccc(Cl)cc1
inactive: dose: 15.0 mg/kg/injection, schedule: Q01DX Z (ip), vehicle: saline 90 % of control | dose: 30.0 mg/kg/injection, schedule: Q01DX Z (ip), vehicle: saline 92 % of control | dose: 60.0 mg/kg/injection, schedule: Q01DX Z (ip), vehicle: saline 97 % of control | dose: 60.0 mg/kg/injection, schedule: Q01DX Z (oral), vehicle: saline 95 % of control | dose: 120.0 mg/kg/injection, schedule: Q01DX Z (ip), vehicle: saline 110 % of control | dose: 120.0 mg/kg/injection, schedule: Q01DX Z (oral), vehicle: saline 92 % of control | dose: 240.0 mg/kg/injection, schedule: Q01DX Z (ip), vehicle: saline 108 % of control | dose: 240.0 mg/kg/injection, schedule: Q01DX Z (oral), vehicle: saline 107 % of control | dose: 480.0 mg/kg/injection, schedule: Q01DX010 (oral), vehicle: saline 96 % of control | dose: 960.0 mg/kg/injection, schedule: Q01DX010 (oral), vehicle: saline 91 % of control

CC(=O)OC1CCC2C3C(C)C4(O)C=CCCC(C)(O4)C3CCC12C (configuration not stated)
inactive: dose: 50.0 mg/kg/injection, schedule: Q01DX001 (sc), vehicle: steriod suspending solution 100 % of control | dose: 100.0 mg/kg/injection, schedule: Q01DX001 (sc), vehicle: steriod suspending solution 89 % of control | dose: 200.0 mg/kg/injection, schedule: Q01DX001 (sc), vehicle: steriod suspending solution 96 % of control | dose: 400.0 mg/kg/injection, schedule: Q01DX001 (sc), vehicle: steriod suspending solution 105 % of control
